Reference: patent publication US10525101B2, “Methods of treating inflammatory or autoimmune disorders with compounds that bind macrophage migration inhibitory factor” (Oregon Health & Science University, priority 2015, dated 2020)
Ends that are not written are not given here.

T1: human MIF (hMIF) (Homo sapiens, UniProt P14174)
T1 sequence (P14174 2-115 limits assumed): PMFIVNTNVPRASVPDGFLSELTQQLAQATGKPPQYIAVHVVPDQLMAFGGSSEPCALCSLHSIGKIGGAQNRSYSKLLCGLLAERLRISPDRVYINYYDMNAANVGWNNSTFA

B1: DRα1-MOG-35-55: second generation derivative of RTL1000, partial MHC molecule DRα1 construct that binds CD74 (protein)
chain: MEVGWYRSPFSRVVHLYRNGKGGGGSLVPRGSGGGGIKEEHVIIQAEFYLNPDQSGEFMFDFDGDEIFHVDMAKKETVWRLEEFGRFASFEAQGALANIAVDKANLEIMTKRSNYTPITN

Assays:
DRα1mMOG-35-55 = experiment: Competition ELISA: peptides competing with rmCD74 for binding to plate-coated DRα1mMOG-35-55; conditions: for competition with CD74 for binding to DRα1-mMOG-35-55 (in words): FIG. 3A, FIGS. 4A/4B; for IC50: FIGS. 4A and 4B, peptides combined or alone, read-out: IC50 for blocking rmCD74 binding to DRα1mMOG-35-55; for LogIC50 vs DRα1mMOG-35-55 / IC50 vs DRα1mMOG-35-55: Table 1, from FIG. 3A, one-binding site fit; for IC50 vs DRα1mMOG-35-55: rmCD74 50 nM
Description: (§1) Competition of peptides with rmCD74 for binding to RTL1000 or DRα1mMOG35-55 was also tested. Briefly, 50 μl of 1 μg/ml either RTL1000 or DRα1mMOG-35-55 were coated onto ELISA plates at 25° C. for 2 hours. Each well was washed 4 times with 300 μl of PBS/0.0125% Tween 20 (PBS/T20) to remove excess of protein and then blocked with 5% BSA/PBS at pH 7.4 (BSA/PBS) for 2 hours at the same temperature. Serial 1:2 dilutions of α-helix 1 or α-helix 2 (starting with a concentration of 66 μM, 50 μg/ml each) were prepared in rmCD74 (in BSA/PBS, 50 nM, 0.5 ug/ml) and added to the plate. Competition for the binding site was allowed for 3 hours at 25° C. and then unbound complexes were washed 4 times with PBS/T20. Remaining rmCD74 bound to RTL1000 or DRα1mMOG-35-55 was detected by the PIN.1/anti-mouse IgG1-HRP at 1 ul/ml of both in BSA/PBS for 1.5 hours at 25° C. and visualized by adding TMB substrate (50 μl, according to the manufacturer's instructions). Color development was stopped with 0.1N HCl and the plate was read at 450 nm in an ELISA plate reader. Data were normalized and fitted to a one-binding site model and competitor concentration was plotted against Absorbance at 450 nm to determine the IC50 of each peptide competitor. All data were analyzed using Prism software (GraphPad).

RTL1000 = experiment: Competition ELISA: peptides competing with rmCD74 for binding to plate-coated RTL1000; conditions: for competition with CD74 for binding to RTL1000 (in words): FIG. 3A; for LogIC50 vs RTL 1000 / IC50 vs RTL 1000: Table 1, from FIG. 3A, one-binding site fit; for IC50 vs RTL 1000: rmCD74 50 nM, in µM
Description: as §1

human MIF (hMIF) = biological target: T1, human MIF (hMIF); experiment: Competition ELISA: peptides blocking rmCD74 binding to plate-coated hMIF; conditions: FIG. 2A/2B
Description: The ability of α-helix 1 and α-helix 2 peptides to compete with MIF for binding to CD74 was tested. Briefly, 50 μl of hMIF at a concentration of 0.5 μg/ml in PBS was coated onto ELISA plates for 2 hours at RT, washed 4 times with […] of PBS/0.0125% T20, blocked with 300 μl of 5% BSA in PBS, pH 7.4 for 2 hours at room temperature, and then a mixture of rmCD74 (constant concentration of 0.5 μg/ml) and competitor (SEQ ID NO: 2, SEQ ID NO: 4) at an initial concentration of 66 μM (33 μM each, mixed or 66 μM each, separately) in 5% BSA/PBS was added to the wells for 3 hours at room temperature to allow binding. Wells were thoroughly washed with PBS/T20 and the mAb PIN.1/anti-mIgG1-HRP (at 0.5 μg/ml in 5% BSA/PBS each) was used to detect the remaining rmCD74 bound to MIF. This mAb recognizes an epitope located at the N-terminus of the protein. Color was developed after adding 50 μl of TMB for 5 minutes and the reaction was stopped with 50 μl of 0.1N HCl. Data was first normalized and then analyzed using GraphPad Prism software. IC50 were calculated by fitting the curve to a competition model involving a two-binding site equation.

[1] = test system: experimental autoimmune encephalomyelitis (EAE); conditions: mice with EAE, treated after onset of clinical signs; cited from earlier work

Row | Molecule | competition with CD74 for binding to DRα1-mMOG-35-55 (in words) (DRα1mMOG-35-55) | competition with CD74 for binding to DRα1-mMOG-35-55 (in words) (DRα1mMOG-35-55; listed as SEQ ID NO: 4) | IC50 (DRα1mMOG-35-55) [µM] | LogIC50 vs DRα1mMOG-35-55 (DRα1mMOG-35-55) | IC50 vs DRα1mMOG-35-55 (DRα1mMOG-35-55) | competition with CD74 for binding to RTL1000 (in words) (RTL1000) | LogIC50 vs RTL 1000 (RTL1000) | IC50 vs RTL 1000 (RTL1000) | blocking of rmCD74 binding to human MIF (in words) (human MIF (hMIF)) | blocking of rmCD74 binding to human MIF (in words) (human MIF (hMIF); listed as SEQ ID NO: 2) | effect on EAE (in words) [1]
1 | KGSFPENLRHLKNTMET [α-helix 2] | did not have a significant effect | competes to a lesser extent | 24.5 | 2.222 | 166.6 | competes to a lesser extent | 1.535 | 34.27 | to a lesser extent |  | 
2 | TEDHVMHLLQNAD [α-helix 1] | able to outcompete |  | 35 | 1.002 | 10.05 | able to outcompete | 0.8309 | 6.775 | blocks CD74 binding to hMIF | able to block | 
3 | B1 |  |  |  |  |  |  |  |  |  |  | reduced disease severity
